Data taken from ChEMBL document CHEMBL1201862, “PubChem BioAssay data set” (2004).
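Each compound was tested at five concentrations against cells in 96-well plates for 48 hours. The concentration for 50% growth inhibition is given as GI50.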 Activity calls are given as the source filed them. Cut-off read from the data, not from the text of the source: active = GI50 up to about 1.1 µM and inactive = higher.

Tests used:
Experiment in all cases: NCI-60 cell line screen, 48 h
ACHN = test system: ACHN
HT-29 = test system: HT-29
SNB-19 = test system: SNB-19
HCT-116 = test system: HCT-116
OVCAR-4 = test system: OVCAR-4
TK-10 = test system: TK-10
HOP-92 = test system: HOP-92
HCT-15 = test system: HCT-15
UACC-62 = test system: UACC-62
SW-620 = test system: SW-620
SK-MEL-5 = test system: SK-MEL-5
SK-MEL-2 = test system: SK-MEL-2
M14 = test system: M14
SK-MEL-28 = test system: SK-MEL-28
OVCAR-8 = test system: OVCAR-8
OVCAR-5 = test system: OVCAR-5
SR = test system: SR

SMILES	GI50 (ACHN)	GI50 (HT-29)	GI50 (SNB-19)	GI50 (HCT-116)	GI50 (OVCAR-4)	GI50 (TK-10)	GI50 (HOP-92)	GI50 (HCT-15) [µM]	GI50 (UACC-62)	GI50 (SW-620)	GI50 (SK-MEL-5)	GI50 (SK-MEL-2)	GI50 (M14)	GI50 (SK-MEL-28)	GI50 (OVCAR-8)	GI50 (OVCAR-5)	GI50 (SR)
CCc1cccc(C(C)C)c1N1C(=O)C(=O)C(c2nc3ccccc3s2)C(=O)C1=O	> 50 µM (inactive)	> 30.6 µM (inactive)	> 50 µM (inactive)	20 µM (inactive)	> 50 µM (inactive)	> 50 µM (inactive)	> 50 µM (inactive)	29.4	> 50 µM (inactive)	32.7 µM (inactive)	21.8 µM (inactive)	> 50 µM (inactive)	> 44.4 µM (inactive)	> 50 µM (inactive)	> 35.2 µM (inactive)	> 50 µM (inactive)	–
Cc1cc(Cl)ccc1NC(=O)CC1SC(NC(=O)c2ccccc2Cl)=NC1=O (stereo not drawn)	16.9 µM (inactive)	21.5 µM (inactive)	> 100 µM (inactive)	17.9 µM (inactive)	20.9 µM (inactive)	> 10 µM (inactive)	18.8 µM (inactive)	19.1	27.1 µM (inactive)	18 µM (inactive)	30.8 µM (inactive)	26.7 µM (inactive)	17.1 µM (inactive)	22 µM (inactive)	> 100 µM (inactive)	27.9 µM (inactive)	15.3 µM (inactive)
Cc1cn2cc(-c3ccncc3)nc2s1	> 100 µM (inactive)	> 100 µM (inactive)	> 100 µM (inactive)	> 83 µM (inactive)	> 82 µM (inactive)	> 100 µM (inactive)	> 100 µM (inactive)	98.6	> 100 µM (inactive)	> 50 µM (inactive)	> 100 µM (inactive)	> 100 µM (inactive)	> 100 µM (inactive)	> 100 µM (inactive)	> 100 µM (inactive)	> 100 µM (inactive)	–
Cc1ccc(NC(=O)CSc2nnc(Cc3ccccc3)o2)c(C)c1	> 100 µM (inactive)	> 100 µM (inactive)	> 100 µM (inactive)	> 100 µM (inactive)	> 100 µM (inactive)	> 100 µM (inactive)	–	> 100	> 100 µM (inactive)	> 100 µM (inactive)	> 100 µM (inactive)	> 100 µM (inactive)	> 100 µM (inactive)	> 100 µM (inactive)	> 100 µM (inactive)	–	> 100 µM (inactive)
c1ccc(P(=Nc2ccccc2N=P(c2ccccc2)(c2ccccc2)c2ccccc2)(c2ccccc2)c2ccccc2)cc1	0.869 µM (active)	1.3 µM (inactive)	0.333 µM (active)	0.593 µM (active)	1.25 µM (inactive)	0.54 µM (active)	0.178 µM (active)	–	0.562 µM (active)	3.07 µM (inactive)	0.401 µM (active)	–	1.44 µM (inactive)	> 100 µM (inactive)	0.364 µM (active)	1.53 µM (inactive)	–
O=C(N/C(=C\c1cc(Cl)ccc1Cl)c1nc2c(O)nc(S)nc2[nH]1)c1ccccc1	37.1 µM (inactive)	20.8 µM (inactive)	> 55.2 µM (inactive)	7.91 µM (inactive)	39.9 µM (inactive)	> 75.3 µM (inactive)	> 44.6 µM (inactive)	17.2	19.7 µM (inactive)	13.7 µM (inactive)	47 µM (inactive)	46.1 µM (inactive)	22.9 µM (inactive)	28.1 µM (inactive)	25.7 µM (inactive)	> 100 µM (inactive)	25.5 µM (inactive)
O=C(/C=C/c1ccc(O)cc1)c1cc(Cl)ccc1O	70.8 µM (inactive)	34.5 µM (inactive)	44.9 µM (inactive)	22.6 µM (inactive)	38.8 µM (inactive)	> 100 µM (inactive)	85.3 µM (inactive)	–	40.3 µM (inactive)	35.4 µM (inactive)	37.2 µM (inactive)	–	55.3 µM (inactive)	44.2 µM (inactive)	39.4 µM (inactive)	–	16.9 µM (inactive)
COC(=O)CC1(O)C(=O)OCc2c1cc1n(c2=O)Cc2c-1nc1ccccc1c2OC (stereo not drawn)	0.0689 µM (active)	2.17 µM (inactive)	0.6 µM (active)	0.388 µM (active)	4.82 µM (inactive)	> 43.6 µM (inactive)	12.3 µM (inactive)	4.61	0.0869 µM (active)	0.515 µM (active)	0.358 µM (active)	16.1 µM (inactive)	0.188 µM (active)	27.5 µM (inactive)	0.726 µM (active)	0.902 µM (active)	< 0.01 µM (active)
O=C(Nc1ccc(Sc2ccc(/N=N/c3c(O)c(S(=O)(=O)O)cc4cc(S(=O)(=O)O)ccc34)cc2)cc1)c1ccc(/N=N/c2c(O)c(S(=O)(=O)O)cc3cc(S(=O)(=O)O)ccc23)cc1	29.9 µM (inactive)	32.1 µM (inactive)	48.3 µM (inactive)	29.8 µM (inactive)	24.1 µM (inactive)	27.5 µM (inactive)	30.5 µM (inactive)	14.9	22.2 µM (inactive)	28.3 µM (inactive)	13.5 µM (inactive)	18.8 µM (inactive)	24.9 µM (inactive)	32.1 µM (inactive)	21 µM (inactive)	47.2 µM (inactive)	10.9 µM (inactive)
